We go through four compounds from patent US9540646B2, “Cellular targets for HIV infection” (priority 2012, dated 2017).

“Also recorded” adds a separate entry of the source.

One data set deals with HIV. Put plainly: HIV replication in macrophage cultures, strain not named. The data set is classed as cell-based. On the procedure: HIV replication: After 6 days in culture, macrophages in 48-well plates at a density of 10^5 cells per well were inoculated with 2-20 ng/ml HIVADA, 2 ng/ml HIVYU-2, or 0.2 ng/ml HIVBaL for 24 hours in the presence or absence of purinergic receptor inhibitors. 5 wells were inoculated per condition. After 24 hours, cells were washed with PBS and then cultured with media. Supernatants were collected and medium was changed every 24 hours until 7 days post inoculation (d.p.i.). When the inhibitors oATP, A-740003, MRS 2179, NF 279, BBG, or suramin, were used, they were added when the medium was changed every 24 hours. Viral replication was analyzed by HIV p24 ELISA (Advanced Bioscience Laboratories, Kensington, Md.) according to the manufacturer's instructions

The next data set concerns Macrophages. The data set is described as follows: Cell viability of macrophages, live/dead assay. In kind it is cell-based. Conditions: 100 μM, 24 hours. The source says: Cells were imaged using a Zeiss AxioObserver.D1 with an LD Plan-Neofluar 20×/0.4 air objective lens. Images were collected at room temperature through a Zeiss AxioCam MRm camera using Axiovision software.

For data set [1] the following is noted: cited from earlier work.
A further data set deals with HIVADA. Put plainly: HIV replication in CD4+ T lymphocytes, HIV-p24 ELISA. Conditions: supernatants each day for 7 days, 10Panx1 200 μM, scrPanx1 200 μM, siRNA 10 nM. In kind it is cell-based, Human immunodeficiency virus-1 (HIV). On the procedure: (§1) HIV-infection and quantification of replication. Cell-free viral inocula were obtained from the National Institutes of Health AIDS Research and Reference Reagent Program. Three isolates were used: HIVADA, and HIVBal, two R5 isolates and HIVLAI, an X4 isolate, PBMCs and purified CD4+ T lymphocytes were isolated and activated with phytohemagglutinin (PHA; 5 μg/ml) plus interleukin (IL-2; 5%) in RPMI 1640 for 48 h in polypropylene tubes at a density of 2×10^6 […] PBMCs and CD4+ T lymphocytes were then infected by incubation for 24 h with viral stocks of HIVADA (20 ng p24/ml/1×10^6 cells), HIVLAI (20 ng p24/ml/1×10^6 cells) or HIVBal (0.001 MOI), washed thoroughly, resuspended in fresh medium, and maintained in polypropylene tubes. Uninfected control cells were activated with PHA plus IL-2 for 48 h, washed, and maintained in polypropylene tubes in fresh media without any virus. To determine the levels of HIV infection, the amount of HIV-p24 released into the medium was determined by ELISA (PerkinElmer, Boston, Mass.)

Data set [2] addresses T1, Panx1 hemichannels (Homo sapiens, UniProt Q96RD7). The data set is described as follows: HIV-induced ethidium (Etd) dye uptake, time lapse fluorescence imaging, in PBMCs and CD4+ T lymphocytes. In kind it is cell-based. Conditions: PBMCs exposed to HIVADA; CD4+ T lymphocytes exposed to HIVADA, HIVBal or HIVLAI; 5 min and 72 h; Prob 500 μM, 10Panx1 200 μM, scrPanx1 200 μM, La3+ 200 μM, Cx43E2 1:500, siRNA 10 nM. On the set-up: endogenous in cells; host or cells: primary human PBMCs and purified CD4+ T lymphocytes from leukopacks (New York Blood Center). On the procedure: Isolation of human PBMCs and CD4+ T lymphocytes. Anticoagulated blood was obtained from leukopacks obtained from the New York Blood Center as described before (16). PBMCs were isolated by under-layering with Ficoll-Paque (Amersham Bioscience, Uppsala, Sweden) according to the procedure described by the manufacturer. Purified PBMC used in these studies were ˜10% monocytes and ˜90% lymphocytes and other hematopoietic cells, as determined by incubation with premixed human CD45 and CD14 monoclonal antibodies conjugated to FITC and PE, respectively (1:50, Caltag Laboratories, Burlingame, Calif.), followed by fluorescence-activated cell sorter analysis (FACS) as we previously described (17). To obtain a pure population of CD4+ T lymphocytes, monocytes were removed from PBMCs by using CD14 coupled magnetic beads and subsequently CD4+ T lymphocytes were isolated with CD4 coupled magnetic beads (Stem Cell Technologies, Vancouver, BC, Canada).
as §1
(§2) Dye uptake and time lapse fluorescence imaging. To characterize the functional state of Panx1 hemichannels, dye uptake experiments using ethidium (Etd) bromide were performed as previously described (18, 19). Cells were washed twice in Hank's balanced salt solution and then exposed to Locke's solution (containing: 154 mM NaCl, 5.4 mM KCl, 2.3 mM CaCl2, 5 mM HEPES and pH 7.4) with 5 μM Etd and time lapse microscopy was performed. Phase-contrast and fluorescence microscopy with time-lapse imaging were used to record cell appearance and fluorescence intensity changes in each condition. Fluorescence was recorded every 30 s. The NIH ImageJ program was used for off-line image analysis and fluorescence quantification. For data representation and calculation of Etd uptake slopes, the average of two independent background fluorescence intensity measurements (FB, expressed as arbitrary units, AU) was subtracted from fluorescence intensity′ in each cell (F1). Results of this calculation (F1-FB), for at least 20 cells, were averaged and plotted against time (expressed in minutes). Slopes were calculated using Microsoft Excel software and expressed as AU/min. Microscope and camera settings remained the same in all experiments. Dead cells were clearly identified during the time lapse microscopy due to their non specific Etd uptake (not inhibited by hemichannel blockers) and were not quantified.

Data set [3] concerns the target T1, Panx1 hemichannels. The data set is described as follows: Etd uptake in CD4+ T lymphocytes induced by chemokines or gp120. In kind it is cell-based. On the set-up: endogenous in cells; host or cells: primary human PBMCs and purified CD4+ T lymphocytes from leukopacks (New York Blood Center). Conditions: gp120 1 μg/ml, 5 min. On the procedure: as §2
For data set [4], the target named is T1, Panx1 hemichannels. Put plainly: HIV-induced Etd uptake in CD4+ T lymphocytes by flow cytometry (FACS). In kind it is cell-based. More on the design: endogenous in cells; host or cells: primary human PBMCs and purified CD4+ T lymphocytes from leukopacks (New York Blood Center). The following applies: HIVADA, 5 min and 72 h. On the procedure: Flow cytometry. To measure Etd uptake in CD4+ T cell populations FACS analysis was performed of cells under control conditions or after HIV exposure at several time points. Etd uptake experiments were performed in CD4+ lymphocytes (3-5×10^5), and after the respective time of Etd uptake, cells were fixed with 2% paraformaldehyde for 30 min at room temperature, incubated with 1% BSA in PBS for 30 min and stained with CD4 antibody for 30 min at 4° C. For analyses of Etd positive populations, 10,000 events were acquired on a BD FACS Canto II and analyzed using FlowJo (Ashland, Oreg.) software as we previously described (17, 20).
(In general: Flow cytometry measures light scatter and fluorescence of single cells or particles in a stream.)

The test system of data set [5] is β-lactamase containing HIVBaL. Put plainly: HIV Entry Assay (β-lactamase / CCF2-AM) in primary human macrophages. The data set is classed as cell-based, Human immunodeficiency virus-1 (HIV). The following applies: apyrase data; concentration not given. On the procedure:
HIV Entry Assay: Primary human macrophages were cultured in black 96-well plates with a clear bottom (Corning Inc., Corning, N.Y.) at a density of 43,000 cells per well. After 7-8 days in culture, cells were inoculated with β-lactamase containing HIVBaL at a multiplicity of infection (MOI) of 0.01, 0.005, or 0.001 in the presence or absence of the purinergic receptor inhibitors oATP, NF 279, A-740003, or MRS 2179 for 4 hours. Beta-lactamase containing HIVBaL was generated as described previously (27). Briefly, HEK-293T cells were transfected using calcium phosphate with two plasmids, one containing the HIVBaL genome, pWT/BaL (NIH repository), the other containing β-lactamase fused to REV vpr, pMM310 (NIH repository). Cells were transfected for 16 hours and then supernatant was collected 24 and 48 hours following transfection. […] Viral stocks were generated by sucrose gradient purification of the transfection supernatants.
Alter viral inoculation of primary human macrophages, cells were washed with phenol red-free DMEM (Gibco) then loaded with CCF2-AM for 6 hours at room temperature using the GeneBLAzer In Vivo Detection Kit (Invitrogen, Carlsbad, Calif.). CCF2-AM fluoresces green due to an internal fluorescence resonance energy transfer, but when cleaved by β-lactamase, this interaction is lost and the molecule fluoresces blue. Cells were imaged using an Olympus IX70 with a Plan 10×/0.25 air objective lens. Images were collected at room temperature through an Olympus E-620LS camera attached to the microscope through an OM adapter MF-1. Images were collected directly onto a memory card and there was no image processing following image collection. Images were collected for 8 fields in 4 separate wells per condition and percentage of cells positive for viral entry was determined by counting the number of blue cells (cells that virus had entered) as compared to the total number of blue and green cells.

T1 sequence (Q96RD7 whole entry): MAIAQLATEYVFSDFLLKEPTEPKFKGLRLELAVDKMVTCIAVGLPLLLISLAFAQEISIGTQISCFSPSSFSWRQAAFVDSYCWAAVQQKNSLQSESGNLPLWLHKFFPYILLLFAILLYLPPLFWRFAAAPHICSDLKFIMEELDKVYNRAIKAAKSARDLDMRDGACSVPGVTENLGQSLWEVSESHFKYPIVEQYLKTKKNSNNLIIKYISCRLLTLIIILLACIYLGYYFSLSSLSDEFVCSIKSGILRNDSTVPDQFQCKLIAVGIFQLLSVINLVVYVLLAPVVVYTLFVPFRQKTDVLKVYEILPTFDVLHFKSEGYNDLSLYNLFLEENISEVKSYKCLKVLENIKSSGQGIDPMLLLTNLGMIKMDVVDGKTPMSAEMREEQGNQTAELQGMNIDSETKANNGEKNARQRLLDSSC

Take `CCOc1ccc(Nc2ccc(/C(=C3C=C/C(=[N+](/CC)Cc4cccc(S(=O)(=O)[O-])c4)C=C/3C)c3ccc(N(CC)Cc4cccc(S(=O)(=O)[O-])c4)cc3C)cc2)cc1.[Na+]` [BBG, brilliant blue G]: in the data set with HIV (macrophage cultures, BBG concentration and strain not printed at the place), the “inhibition of viral replication relative to cultures infected with HIV only” value is 54-90%. Moreover, the “cell viability (live/dead assay)” value in the data set with Macrophages is listed as “None of the antagonist caused any decrease in cell viability”. In addition, in data set [1] (rat model of traumatic spinal cord injury, reference 75), the “recovery after spinal cord injury” value was “recovery of motor function and limited inflammation following spinal cord injury”. Further, in data set [1] (rat, in vivo), the toxicity in vivo result is given as “without any toxicity”.

As for “FADRYWAQVS (scrambled peptide) [scrPanx1]”, in the data set on HIVADA, the “HIV replication (HIV-p24 release into the media)” value was “did not alter”. In addition, the “Etd uptake (rate) induced by the virus” value with Panx1 hemichannels [2] is given as “did not affect”. Further, the “gp120-induced Etd uptake, in presence of blockers” value with Panx1 hemichannels [3] is listed as “No effects”.

Regarding “WRQAAFVDSY (Panx1 mimetic blocking peptide) [10Panx1]”, the “HIV replication (HIV-p24 release into the media)” value in the data set with HIVADA was “abolished HIV replication to almost control undetectable levels; also recorded: dramatically reduced”. The “Etd uptake (rate) induced by the virus” value in the data set with Panx1 hemichannels [2] is reported as “completely blocked; also recorded: completely reduced”. Besides, the “Etd uptake induced by the virus, analyzed by FACS” value in the data set with Panx1 hemichannels [4] was “reduced Etd uptake; also recorded: reduced to control conditions (100%)”. The “gp120-induced Etd uptake, in presence of blockers” value in the data set with Panx1 hemichannels [3] was “inhibited”.

Turning to apyrase, the “reduction in HIV replication in macrophages” value with HIV (apyrase data, concentration not given) is listed as “no reduction”. Further, the “reduction in HIV entry in macrophages” value in data set [5] is on record as “no reduction”.
